Measured values reported in patent US20240226127A1, “NUCLEOSIDE COMPOUND AND APPLICATION THEREOF IN THE TREATMENT OF FELINE INFECTIOUS PERITONITIS” (VIGONVITA LIFE SCIENCES CO., LTD., priority 2021, published 2024).
≈ marks a conversion by molar mass, not a printed value.

Tests used:
[1] = tested on: Feline Infectious Peritonitis Virus (FIPV); assay: In vitro anti feline infectious peritonitis virus (FIPV) activity in CRFK cells; format: cell-based; details: Alphacoronavirus 1, 0.1 MOI FIPV, 72 hours, CellTier-Glo cell viability
Experimental: Well-growing CRFK cells were inoculated on a 96-well plate. When the cells grow to 80%-90% confluence, 0.1 MOI Feline Infectious Peritonitis Virus (FIPV) and different concentrations of test compounds (0.3125 μM, 0.625 μM, 1.25 μM, 2.5 μM, 5 μM, 10 μM, 20 μM, and 40 μM) were added to each well. Simultaneously set up cell control and virus control with 1% DMSO each well. After being incubated at 37° C. for 72 hours, the cells were treated with CellTier-Glo luminescence assay cell viability detection reagents (Promega, Madison, WI, USA), and the half effective concentration (EC50) of the compounds against virus inhibition was calculated by GraphPad prism 7 software.

[2] = tested on: feline infectious peritonitis; assay: Pharmacodynamic experiment on feline infectious peritonitis (subcutaneous aqueous injection); format: in vivo; details: cats with feline infectious peritonitis, 2 mg/kg once a day subcutaneous aqueous injection, two weeks; for weight changes of cats before and after treatment: FIG. 1; for number of erythrocytes: FIG. 2; for ratio of Albumin to Globulin (A/G): FIG. 3
Experimental: 15 mg of compounds 1, 32, and 85 was dissolved separately in 5 mL of solution (water:propylene glycol:PEG=2:1:1) to prepare an injection solution for injection administration. The injection can be stored at room temperature. Use a 2 mL disposable veterinary syringe to draw the corresponding volume of the injection solution and expel air upwards. When injecting, choose a site with soft skin, loose subcutaneous tissue, and fewer blood vessels, such as the neck or medial thigh, for subcutaneous injection. The dosage of administration is 2 mg/kg body weight once a day. Blood samples are collected every three days and blood routine and corresponding biochemical indicators are measured. The end of the experiment is marked when the cat's biochemical indicators return to normal. The indicator data measured in the experiment includes body weight data, erythrocyte data, and data of the ratio of Albumin to Globulin. The experimental subjects for each compound are 15 cats diagnosed with feline infectious peritonitis.

[3] = Solubility test in water (HPLC, external standard method); format: physicochemical; details: thermodynamic from solid
Experimental: Experimental method: Refer to the high-performance liquid chromatography method (Chinese Pharmacopoeia, 2020 Edition, Part Four, General Rule 0512) for determination.
a. Take approximately 1-2 mg of the compound, and place it in a 10 ml volumetric flask. Add lml of water and vigorously shake for 30 seconds every 5 minutes. Observe for 30 minutes. The sample is not completely dissolved. Filter through a 0.45 μm filter membrane, and take the remaining filtrate as the test solution.
b. Take approximately amount of the reference substance, add solvent (DMSO: methanol=10:90) to dissolve and dilute it quantitatively to produce a solution containing 0.1 mg per 1 ml as the reference substance solution.
c. Accurately measure 20 μl of each of the reference substance and test solution, and inject them into the liquid chromatograph respectively. Calculate the peak area according to the external standard method. Calculation formula: […]
In the formula: AT: the main peak area of the test solution; AR: the main peak area of reference substance solution; WR: weighing amount of reference substance solution, mg; VR: dilution volume of reference substance solution, ml; S: content of reference substance solution, %.
d. Chromatographic conditions: Using octadecylsilane bonded silica gel as the filling agent (Welch Ultimate XB-C18, 4.6×150 mm, suitable for 5 um columns). […]

| SMILES | EC50 [1] [nM] | weight changes of cats before and after treatment [2] | number of erythrocytes [2] | ratio of Albumin to Globulin (A/G) [2] | solubility at 30 min [3] [µg/mL] |
| --- | --- | --- | --- | --- | --- |
| N#C[C@@]1(c2ccc3c(N)ncnn23)O[C@H](COC(=O)CC(F)(F)F)[C@@H](O)[C@H]1O [Compound 14] | 2950 |  |  |  |  |
| N#C[C@@]1(c2ccc3c(N)ncnn23)O[C@H](COC(=O)C2CCCCC2)[C@@H](O)[C@H]1O [Compound 18] | 350 |  |  |  |  |
| CN(C)CCN(C)C(=O)OC[C@H]1O[C@@](C#N)(c2ccc3c(N)ncnn23)[C@H](O)[C@@H]1O [Compound 85] |  | significantly raised | significantly increased | reached normal values |  |
| N#C[C@@]1(c2ccc3c(N)ncnn23)O[C@H](CO)[C@@H](O)[C@H]1O [GS-441524] |  |  |  |  | 50 (≈ 172 µM) |
| N#C[C@@]1(c2ccc3c(N)ncnn23)O[C@H](COC(=O)CO)[C@@H](O)[C@H]1O [Compound 32] | 6210 | significantly raised | significantly increased | reached normal values |  |
| CC(=O)OC[C@H]1O[C@@](C#N)(c2ccc3c(N)ncnn23)[C@H](O)[C@@H]1O [Compound 1] |  | significantly raised | significantly increased | reached normal values |  |
| CC(C)C(=O)OC[C@H]1O[C@@](C#N)(c2ccc3c(N)ncnn23)[C@H](O)[C@@H]1O [Compound 4] | 650 |  |  |  |  |
| N#C[C@@]1(c2ccc3c(N)ncnn23)O[C@H](COC(=O)C2CCC2)[C@@H](O)[C@H]1O [Compound 16] | 810 |  |  |  |  |
